Results on 1 sequence are retold here after article PMC9046087, “Structural basis of tethered agonism of the adhesion GPCRs ADGRD1 and ADGRF1” (Nature, 2022).

Ends that are not written are not given here.

Format in all cases: cell-based
In assay [1] the target is T1, ADGRF1 (Homo sapiens, UniProt Q5T601, F641A).
T1 construct: Flag (N); expressed in transfected cells; host or cells: HEK293F
Put plainly: BRET assay using TRUPATH biosensors, Gi activation of ADGRF1. To be noted: ADGRF1 F641^2.64bA. Here is the method: (§1) To study the synthetic stalk peptide-induced G protein activation of ADGRD1 and ADGRF1, a BRET assay using TRUPATH biosensors was conducted to measure the proximal interaction between RLuc8 fused to the Gα subunit and GFP2 fused to the Gγ subunit. The TRUPATH suite of biosensors was obtained from Addgene (Addgene kit no. 1000000163) as a gift from B. Roth, including GαsS-RLuc8, Gαi1-RLuc8, Gβ3 and Gγ9-GFP2 as previously described.
(§2) The wild-type or mutant ADGRD1 and ADGRF1 were transiently co-transfected with plasmids encoding Gα-RLuc8 (GαsS-RLuc8 for Gs activation assay; Gαi1-RLuc8 for Gi activation assay), Gβ3 and Gγ9-GFP2 at a ratio of 2:1:1:1 (receptor plasmid, 800 ng; G protein subunit plasmids, 400 ng for each) in 2 ml HEK293F cells at a density of 1.2 × 10^6 cells per ml. Cell cultivation and receptor surface expression measurement were performed as described above. The cells were plated into 96-well white plates (40,000 cells per well) in 60 μl of assay buffer and incubated at 37 °C for 30 min. Then 10 μl of freshly prepared 50 μM coelenterazine 400a (Nanolight Technologies) was added. […] The cells were stimulated with 30 μl of synthetic stalk peptide at different concentrations and the BRET signals were monitored continuously five times. The last measurements were used in data analysis. The BRET ratios were calculated as the ratio of the GFP2 emission to RLuc8 emission.
(In general: BRET reads energy transfer from a luciferase to a nearby fluorophore.)

Assay [2] has as its target T2, ADGRF1 (Homo sapiens, UniProt Q5T601, L678A).
T2 construct: Flag (N); expressed in transfected cells; host or cells: HEK293F
The assay is described as above. To be noted: ADGRF1 L678^3.50bA. Here is the method: as §1, §2

For assay [3], the target named is T3, ADGRF1 (Homo sapiens, UniProt Q5T601, L681A).
T3 construct: Flag (N); expressed in transfected cells; host or cells: HEK293F
T3 sequence (Q5T601 20-910 L681A): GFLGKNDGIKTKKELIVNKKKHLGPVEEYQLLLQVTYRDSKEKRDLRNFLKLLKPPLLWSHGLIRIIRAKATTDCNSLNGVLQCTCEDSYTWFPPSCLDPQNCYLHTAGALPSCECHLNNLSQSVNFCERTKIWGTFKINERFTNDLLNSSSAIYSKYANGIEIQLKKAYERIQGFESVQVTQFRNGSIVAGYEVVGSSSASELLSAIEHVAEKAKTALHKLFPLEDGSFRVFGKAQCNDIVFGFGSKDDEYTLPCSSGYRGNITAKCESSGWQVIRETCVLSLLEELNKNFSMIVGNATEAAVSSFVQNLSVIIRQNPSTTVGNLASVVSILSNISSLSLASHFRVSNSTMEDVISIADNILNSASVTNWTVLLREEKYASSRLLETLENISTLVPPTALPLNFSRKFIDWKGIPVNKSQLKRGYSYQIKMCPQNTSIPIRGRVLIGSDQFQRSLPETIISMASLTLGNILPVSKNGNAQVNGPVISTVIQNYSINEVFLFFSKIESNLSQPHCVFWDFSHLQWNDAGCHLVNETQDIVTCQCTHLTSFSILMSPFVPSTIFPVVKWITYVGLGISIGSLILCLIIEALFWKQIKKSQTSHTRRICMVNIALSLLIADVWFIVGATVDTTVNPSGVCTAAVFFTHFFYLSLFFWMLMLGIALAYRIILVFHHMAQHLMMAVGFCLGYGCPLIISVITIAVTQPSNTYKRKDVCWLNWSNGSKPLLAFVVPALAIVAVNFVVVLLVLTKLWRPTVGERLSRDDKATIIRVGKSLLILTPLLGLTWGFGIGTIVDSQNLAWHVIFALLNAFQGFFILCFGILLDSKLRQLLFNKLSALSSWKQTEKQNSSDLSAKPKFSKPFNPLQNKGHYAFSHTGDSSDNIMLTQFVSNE
The assay is described as above. To be noted: ADGRF1 L681^3.53bA. As for the experimental part: as §1, §2

For assay [4], the target named is T4, ADGRF1 (Homo sapiens, UniProt Q5T601, L681E).
T4 construct: Flag (N); expressed in transfected cells; host or cells: HEK293F
T4 sequence (Q5T601 20-910 L681E): as the sequence (Q5T601 20-910 L681A) above, with A662E counted along it
The description is as above. To be noted: ADGRF1 L681^3.53bE. Here is the method:
as §1, §2

The target of assay [5] is T5, ADGRF1 (Homo sapiens, UniProt Q5T601, L799A).
T5 construct: Flag (N); expressed in transfected cells; host or cells: HEK293F
T5 sequence (Q5T601 20-910 L799A): as the sequence (Q5T601 20-910 L681A) above, with A662L, L780A counted along it
The assay is described as above. To be noted: ADGRF1 L799^6.48bA. As for the experimental part:
as §1, §2

The target in assay [6] is T6, ADGRF1 (Homo sapiens, UniProt Q5T601, R623A).
T6 construct: Flag (N); expressed in transfected cells; host or cells: HEK293F
T6 sequence (Q5T601 20-910 R623A): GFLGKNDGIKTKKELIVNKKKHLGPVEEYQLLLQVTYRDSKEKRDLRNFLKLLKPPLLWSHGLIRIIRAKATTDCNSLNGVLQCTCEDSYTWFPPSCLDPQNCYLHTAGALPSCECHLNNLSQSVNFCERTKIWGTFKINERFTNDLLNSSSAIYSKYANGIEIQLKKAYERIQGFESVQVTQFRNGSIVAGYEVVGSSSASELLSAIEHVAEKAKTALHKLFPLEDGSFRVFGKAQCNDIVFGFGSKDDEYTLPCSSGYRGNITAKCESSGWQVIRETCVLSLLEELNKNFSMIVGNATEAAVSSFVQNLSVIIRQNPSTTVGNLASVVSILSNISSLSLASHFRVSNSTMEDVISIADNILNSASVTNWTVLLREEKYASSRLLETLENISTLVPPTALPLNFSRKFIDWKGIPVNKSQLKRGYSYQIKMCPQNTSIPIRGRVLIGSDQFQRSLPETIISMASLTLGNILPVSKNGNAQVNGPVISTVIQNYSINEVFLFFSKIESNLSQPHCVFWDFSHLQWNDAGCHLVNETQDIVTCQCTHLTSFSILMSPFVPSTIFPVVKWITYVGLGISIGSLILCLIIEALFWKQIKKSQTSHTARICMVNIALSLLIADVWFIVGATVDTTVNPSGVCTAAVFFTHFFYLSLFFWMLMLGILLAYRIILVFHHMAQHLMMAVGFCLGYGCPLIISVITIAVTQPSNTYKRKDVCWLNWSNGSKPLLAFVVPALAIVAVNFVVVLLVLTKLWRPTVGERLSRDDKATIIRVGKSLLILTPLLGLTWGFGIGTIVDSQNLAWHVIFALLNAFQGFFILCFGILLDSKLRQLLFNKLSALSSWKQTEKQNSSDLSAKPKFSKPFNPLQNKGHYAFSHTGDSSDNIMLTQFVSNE
The assay is described as above. To be noted: ADGRF1 R623^2.46bA. As for the experimental part:
as §1, §2

For another assay, the target named is T7, ADGRD1 (Homo sapiens, UniProt Q6QNK2).
T7 construct: Flag (N); expressed in transfected cells; host or cells: HEK293F
T7 sequence (Q6QNK2 26-874): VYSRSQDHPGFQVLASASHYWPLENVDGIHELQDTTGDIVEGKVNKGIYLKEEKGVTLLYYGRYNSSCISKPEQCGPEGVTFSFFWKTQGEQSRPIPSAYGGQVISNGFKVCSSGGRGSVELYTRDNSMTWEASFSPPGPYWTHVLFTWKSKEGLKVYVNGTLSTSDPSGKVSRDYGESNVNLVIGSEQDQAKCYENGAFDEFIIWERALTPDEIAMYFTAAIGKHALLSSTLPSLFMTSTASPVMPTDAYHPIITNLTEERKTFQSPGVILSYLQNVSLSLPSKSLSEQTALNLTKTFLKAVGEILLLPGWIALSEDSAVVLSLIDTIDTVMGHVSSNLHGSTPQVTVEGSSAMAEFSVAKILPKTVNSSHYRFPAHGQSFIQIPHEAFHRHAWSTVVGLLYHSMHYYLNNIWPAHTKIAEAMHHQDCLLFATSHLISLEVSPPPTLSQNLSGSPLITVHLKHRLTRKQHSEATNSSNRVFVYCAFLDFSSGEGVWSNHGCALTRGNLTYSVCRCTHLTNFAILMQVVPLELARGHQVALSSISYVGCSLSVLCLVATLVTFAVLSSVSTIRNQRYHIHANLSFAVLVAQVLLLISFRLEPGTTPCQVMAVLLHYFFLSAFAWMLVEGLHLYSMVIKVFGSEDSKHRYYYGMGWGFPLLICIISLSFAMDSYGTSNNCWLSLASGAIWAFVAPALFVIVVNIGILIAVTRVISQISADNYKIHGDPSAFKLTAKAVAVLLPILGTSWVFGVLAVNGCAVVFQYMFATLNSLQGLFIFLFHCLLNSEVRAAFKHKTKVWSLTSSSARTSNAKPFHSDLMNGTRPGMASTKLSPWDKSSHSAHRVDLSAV
Put plainly: BRET assay using TRUPATH biosensors, G protein activation of ADGRD1. To be noted: Gs, ADGRD1 WT, n = 3. As for the experimental part: as §1, §2

The mark [7] stands for this setting: n = 3, read-out: pEC50 (mean ± s.e.m.) (converted).

T1 sequence (Q5T601 20-910 F641A): as the sequence (Q5T601 20-910 L681A) above, with F622A, A662L counted along it
T2 sequence (Q5T601 20-910 L678A): as the sequence (Q5T601 20-910 L681A) above, with L659A, A662L counted along it

As for TSFSILMSPFVP [pF1], the “Emax (mean ± s.e.m.)” value at ADGRF1 [1] (n = 3) was 82 ± 15 % of WT; at ADGRF1 [2] (n = 3), 58 ± 7 % of WT; at ADGRF1 [3] (n = 3), 59 ± 10 % of WT; on ADGRF1 [4] (n = 3), 130 ± 12 % of WT; on ADGRF1 [5] (n = 3), 109 ± 11 % of WT; on ADGRF1 [6] (n = 3) it was 120 ± 8 % of WT. Besides, the “Emax (mean ± s.e.m.)” value on ADGRD1 is reported as 67 ± 12 % of WT. In addition, the EC50 is 204 nM on ADGRF1 [1] (setting [7]); 129 nM on ADGRF1 [2] (setting [7]); 120 nM on ADGRF1 [3] (setting [7]); 794 nM at ADGRF1 [4] (setting [7]); 380 nM on ADGRF1 [5] (setting [7]); 447 nM on ADGRF1 [6] (setting [7]). Also, the EC50 at ADGRD1 (read-out: pEC50 (mean ± s.e.m.) (converted)) is 1260 nM.
